From patent publication US20230058623A1, “NOVEL HETEROARYL-TRIAZOLE COMPOUNDS AS PESTICIDES” (Bayer Aktiengesellschaft, priority 2019, published 2023)

Key:
Type in all cases: in vivo
[1] = test system: fall armyworm larvae (Spodoptera frugiperda); test: Spodoptera frugiperda spray test; settings: 168 h, application rate 100 g/ha, after 7 days, maize leaf sections
Description: Spodoptera frugiperda—Spray Test
(§1) To produce a suitable preparation of active compound, 1 part by weight of active compound is mixed with the stated amount of solvents and is diluted with water, containing an emulsifier concentration of 1000 ppm, to the desired concentration. Further test concentrations are prepared by dilution with emulsifier containing water.
Maize (Zea mays) leaf sections are sprayed with a preparation of the active ingredient of the desired concentration. Once dry, the leaf sections are infested with fall armyworm larvae (Spodoptera frugiperda).
After 7 days mortality in % is determined. 100% means all caterpillars have been killed and 0% means none of the caterpillars have been killed.

[2] = test system: adult cat fleas (Ctenocephalides felis); test: Ctenocephalides felis in-vitro contact test, adult cat flea; settings: application rate 5 μg/cm^2 (=500 g/ha), after 48 hours, read-out: activity (efficacy: fleas dead or moribund)
Description: Ctenocephalides felis—In-Vitro Contact Tests Adult Cat Flea
(§2) 9 mg compound is solved in 1 mL acetone and diluted with acetone to the desired concentration. 250 μL of the test solution is filled in 25 mL glass test tubes and homogeneously distributed on the inner walls by rotation and tilting on a shaking device (2 h at 30 rpm). With a compound concentration of 900 ppm, an inner surface of 44.7 cm^2 and a homogeneous distribution, a dose of 5 μg/cm^2 is achieved.
After the solvent has evaporated, each test tube is filled with 5-10 adult cat fleas (Ctenocephalides felis), closed with a perforated lid and incubated in a lying position at room temperature and relative humidity. After 48 hours efficacy is determined. The fleas are patted on the ground of the tubes and are incubated on a heating plate at 45-50° C. for at most 5 minutes. Immotile or uncoordinated moving fleas, which are not able to escape the heat by climbing upwards, are marked as dead or moribund.
An efficacy of 100% means all fleas are dead or moribund; 0% means no fleas are dead or moribund.

[3] = test system: Rhipicephalus (Boophilus) microplus larvae (strain Parkhurst, resistant against synthetic pyrethroids); test: Rhipicephalus (Boophilus) microplus in-vitro contact test, larval cattle tick; settings: after 48 hours, read-out: activity (efficacy: larvae dead or moribund); for pest or weed control at 1 µg/cm2, 100 g/ha: application rate 1 μg/cm^2 (=100 g/ha); for pest or weed control at 5 µg/cm2, 500 g/ha: application rate 5 μg/cm^2 (=500 g/ha)
Description: Rhipicephalus (Boophilus) microplus—In-Vitro Contact Tests Larval Cattle Tick (Strain Parkhurst, Resistant Against Synthetic Pyrethroids)
as §2, with “1 ml” for “1 mL”
After the solvent has evaporated, each test tube is filled with 20-50 cattle tick larvae (Rhipicephalus microplus), closed with a perforated lid and incubated in a horizontal position at 85% relative humidity and 27° C. in an incubator. After 48 hours efficacy is determined. The larvae are patted on the ground of the tubes and negative geotactic behavior is recorded.
An efficacy of 100% means all larvae are dead or moribund; 0% means no larvae are dead or moribund.

[4] = test system: green peach aphid (Myzus persicae); test: Myzus persicae oral test; settings: 120 h, read-out: activity (mortality)
Description: Solvent: 100 parts by weight acetone
To produce a suitable preparation of active compound, 1 part by weight of active compound is mixed with the stated amount of solvent, and the concentrate is diluted with water to the desired concentration.
50 μL compound solution is filled in microtiter plates and 150 μL IPL41 insect medium (33%+15% sugar) is added to obtain a total volume of 200 μL per well. Afterwards the plates are sealed with parafilm through which a mixed population of the green peach aphid (Myzus persicae) can suck on the compound preparation.
After 5 days mortality in % is determined. 100% means all aphids have been killed and 0% means none of the aphids have been killed.

[5] = test system: larvae of the banded cucumber beetle (Diabrotica balteata); test: Diabrotica balteata spray test; settings: 168 h, after 7 days, wheat seeds, read-out: activity (efficacy: seedlings grown); for pest or weed control at 32 µg/disc, 100 g/ha: application rate 100 g/ha (=32 μg/well); for pest or weed control at 160 µg/disc, 500 g/ha: application rate 500 g/ha (=160 μg/well)
Description: Diabrotica balteata—Spray Test
as §1, with “solvent,” for “solvents”, “and the concentrate” for “and”
Soaked wheat seeds (Triticum aestivum) are placed in a multiple well plate filled with agar and some water and are incubated for 1 day to germinate (5 seeds per well). The germinated wheat seeds are sprayed with a test solution containing the desired concentration of the active ingredient. Afterwards each unit is infected with 10-20 larvae of the banded cucumber beetle (Diabrotica balteata).
After 7 days efficacy in % is determined. 100% means all the seedlings have grown up like in the untreated, uninfected control; 0% means none of the seedlings have grown.

## Cc1nc([C@H](C)NC(=O)c2cc(C(F)(F)F)cc(C(F)(F)F)c2)n(-c2ccc(C(=O)N3CCOCC3c3ccnn3C)cn2)n1 (stereo partly drawn) [Example I-101]
[1]
  mortality at 100 g/ha: 100%
[2]
  pest or weed control at 5 µg/cm2: 80%
[3]
  pest or weed control at 1 µg/cm2, 100 g/ha: 80%
  pest or weed control at 5 µg/cm2, 500 g/ha: 80%

## Cc1nc([C@H](C)NC(=O)c2cc(Cl)cc(C(F)(F)F)c2)n(-c2ccc(C(=O)N3CC(O)C3)cn2)n1 [Example I-21]
[4]
  mortality at 4 ppm: 100%

## C[C@H](NC(=O)c1cc(Cl)cc(S(C)(=O)=O)c1)c1ncnn1-c1ccc(C(=O)N2CCS(=O)(=O)CC2)cn1 [Example I-96]
[4]
  mortality at 4 ppm: 100%

## CC1CCN(C(=O)c2ccc(-n3ncnc3[C@H](C)NC(=O)c3cc(C(F)(F)F)cc(C(F)(F)F)c3)nc2)CC1 [Example I-73]
[3]
  pest or weed control at 1 µg/cm2, 100 g/ha: 100%
  pest or weed control at 5 µg/cm2, 500 g/ha: 100%
[5]
  pest or weed control at 32 µg/disc, 100 g/ha: 100%

## C[C@H](NC(=O)c1cc(C(F)(F)F)cc(C(F)(F)F)c1)c1ncnn1-c1cnc(C(=O)N2CCCC2)cn1 [Example I-144]
[1]
  mortality at 100 g/ha: 100%
[5]
  pest or weed control at 32 µg/disc, 100 g/ha: 100%

## C[C@H](NC(=O)c1cc(C(F)(F)F)cc(C(F)(F)F)c1)c1ncnn1-c1ccc(C(=O)NC2CC(C)(C)OC(C)(C)C2)cn1 [Example I-64]
[3]
  pest or weed control at 1 µg/cm2, 100 g/ha: 90%
  pest or weed control at 5 µg/cm2, 500 g/ha: 80%
[5]
  pest or weed control at 32 µg/disc, 100 g/ha: 100%

## CON(C)C(=O)c1cnc(-n2nc(C)nc2[C@H](C)NC(=O)c2cc(C(F)(F)F)cc(C(F)(F)F)c2)s1 [Example I-97]
[3]
  pest or weed control at 1 µg/cm2, 100 g/ha: 100%
  pest or weed control at 5 µg/cm2, 500 g/ha: 100%
[4]
  mortality at 4 ppm: 100%
[5]
  pest or weed control at 32 µg/disc, 100 g/ha: 100%

## C[C@H](NC(=O)c1cc(Br)cc(Br)c1)c1ncnn1-c1ccc(N2CCOCC2)cn1 [Example I-103]
[3]
  pest or weed control at 1 µg/cm2, 100 g/ha: 90%
  pest or weed control at 5 µg/cm2, 500 g/ha: 100%
[5]
  pest or weed control at 32 µg/disc, 100 g/ha: 100%

## Cc1nc([C@H](C)NC(=O)c2cc(OC(F)(F)F)cc(C3CC3)c2)n(-c2ncc(C(=O)N3CCOCC3)s2)n1 [Example I-137]
[1]
  mortality at 100 g/ha: 100%

## Cc1nc([C@H](C)NC(=O)c2cc(OC(F)(F)F)cc(C3CC3)c2)n(-c2ccc(C(=O)N3CCOC[C@@H]3C)cn2)n1 [Example I-129]
[2]
  pest or weed control at 5 µg/cm2: 100%
[3]
  pest or weed control at 1 µg/cm2, 100 g/ha: 100%
  pest or weed control at 5 µg/cm2, 500 g/ha: 100%

## C[C@H](NC(=O)c1cc(Cl)cc(C(F)(F)F)c1)c1ncnn1-c1ccc(S(=O)(=O)N2CCOCC2)cn1 [Example I-123]
[3]
  pest or weed control at 1 µg/cm2, 100 g/ha: 100%
  pest or weed control at 5 µg/cm2, 500 g/ha: 100%
[5]
  pest or weed control at 32 µg/disc, 100 g/ha: 80%

## CC(NC(=O)c1cc(F)cc(C#N)c1)c1nc(C(F)F)nn1-c1ccc(C(=O)N2CCOCC2)cn1 (stereo not drawn) [Example I-60]
[5]
  pest or weed control at 32 µg/disc, 100 g/ha: 100%
  pest or weed control at 160 µg/disc, 500 g/ha: 100%

## C[C@@H]1CN(C(=O)c2ccc(-n3nc(C4CC4)nc3[C@H](C)NC(=O)c3cc(Cl)cc(S(=O)(=O)C4CC4)c3)nc2)C[C@H](C)O1 [Example I-91]
[1]
  mortality at 100 g/ha: 100%
[5]
  pest or weed control at 32 µg/disc, 100 g/ha: 100%

## C[C@H](NC(=O)c1cc(C(F)(F)F)cc(C(F)(F)F)c1)c1ncnn1-c1ccc(S(=O)(=O)N2CCOCC2)cn1 [Example I-127, N-[(1S)-1-{1-[5-(morpholin-4-ylsulfonyl)pyridin-2-yl]-1H-1,2,4-triazol-5-yl}ethyl]-3,5-bis(trifluoromethyl)benzamide]
[3]
  pest or weed control at 1 µg/cm2, 100 g/ha: 100%
  pest or weed control at 5 µg/cm2, 500 g/ha: 100%

## C[C@H](NC(=O)c1cc(OC(F)(F)F)cc(C2CC2)c1)c1ncnn1-c1ccc(S(=O)(=O)N2CCOCC2)cn1 [Example I-125]
[3]
  pest or weed control at 1 µg/cm2, 100 g/ha: 100%
  pest or weed control at 5 µg/cm2, 500 g/ha: 100%
[5]
  pest or weed control at 32 µg/disc, 100 g/ha: 100%
  pest or weed control at 160 µg/disc, 500 g/ha: 100%

## C[C@H](NC(=O)c1cc(Cl)cc(S(=O)(=O)C(F)(F)F)c1)c1ncnn1-c1ccc(N2CCOCC2)cn1 [Example I-105]
[1]
  mortality at 100 g/ha: 83%
[3]
  pest or weed control at 1 µg/cm2, 100 g/ha: 100%
  pest or weed control at 5 µg/cm2, 500 g/ha: 100%
[5]
  pest or weed control at 32 µg/disc, 100 g/ha: 100%

## Cc1nc([C@H](C)NC(=O)c2cc(C(F)(F)F)cc(C(F)(F)F)c2)n(-c2ccc(C(=O)N3CCC(C)CC3)cn2)n1 [Example I-74]
[3]
  pest or weed control at 1 µg/cm2, 100 g/ha: 90%
  pest or weed control at 5 µg/cm2, 500 g/ha: 90%
[5]
  pest or weed control at 32 µg/disc, 100 g/ha: 100%

## C[C@H](NC(=O)c1cc(C(F)(F)F)cc(C(F)(F)F)c1)c1ncnn1-c1ccc(N2CCOCC2)cn1 [Example I-44, N-[(1S)-1-{1-[5-(morpholin-4-yl)pyridin-2-yl]-1H-1,2,4-triazol-5-yl}ethyl]-3,5-bis(trifluoromethyl)benzamide]
[1]
  mortality at 100 g/ha: 100%
[3]
  pest or weed control at 1 µg/cm2, 100 g/ha: 100%
  pest or weed control at 5 µg/cm2, 500 g/ha: 100%
[5]
  pest or weed control at 32 µg/disc, 100 g/ha: 100%

## C[C@H](NC(=O)c1cc(C(F)(F)F)cc(C(F)(F)F)c1)c1ncnn1-c1ccc(C(=O)NC2CCSCC2)cn1 [Example I-113]
[3]
  pest or weed control at 1 µg/cm2, 100 g/ha: 100%
  pest or weed control at 5 µg/cm2, 500 g/ha: 100%
[4]
  mortality at 4 ppm: 100%

## C[C@@H]1CN(C(=O)c2cnc(-n3ncnc3[C@H](C)NC(=O)c3cc(OC(F)(F)F)cc(S(C)(=O)=O)c3)cn2)C[C@H](C)O1 [Example I-142]
[1]
  mortality at 100 g/ha: 100%

## C[C@H](NC(=O)c1cc(Cl)cc(C(F)(F)F)c1)c1ncnn1-c1ccc(N2CCCCC2=O)cn1 [Example I-57]
[4]
  mortality at 4 ppm: 90%

## C[C@H](NC(=O)c1cc(C(F)(F)F)cc(C(F)(F)F)c1)c1ncnn1-c1ccc(C(=O)NC2CCOCC2)cn1 [Example I-111]
[3]
  pest or weed control at 1 µg/cm2, 100 g/ha: 100%
  pest or weed control at 5 µg/cm2, 500 g/ha: 100%
[4]
  mortality at 4 ppm: 90%

## C[C@@H]1CN(C(=O)c2cnc(-n3ncnc3[C@H](C)NC(=O)c3cc(C(F)(F)F)cc(C(F)(F)F)c3)nc2)C[C@H](C)O1 [Example I-146]
[1]
  mortality at 100 g/ha: 100%
[5]
  pest or weed control at 32 µg/disc, 100 g/ha: 100%

## C[C@H](NC(=O)c1cc(Cl)cc(C(F)(F)F)c1)c1ncnn1-c1ccc(C(=O)N2[C@@H](C)CCC[C@@H]2C)cn1 [Example I-39]
[5]
  pest or weed control at 160 µg/disc, 500 g/ha: 100%

## C[C@H](NC(=O)c1cc(Cl)cc(S(C)(=O)=O)c1)c1ncnn1-c1ccc(C(=O)N2CCOCC2)cn1 [Example I-119]
[4]
  mortality at 4 ppm: 100%

## C[C@H](NC(=O)c1cc(C(F)(F)F)cc(C(F)(F)F)c1)c1ncnn1-c1ccc(N2CCOCC2=O)cn1 [Example I-128, N-[(1S)-1-{1-[5-(3-oxomorpholin-4-yl)pyridin-2-yl]-1H-1,2,4-triazol-5-yl}ethyl]-3,5-bis(trifluoromethyl)benzamide]
[3]
  pest or weed control at 1 µg/cm2, 100 g/ha: 100%
  pest or weed control at 5 µg/cm2, 500 g/ha: 100%
[4]
  mortality at 4 ppm: 100%

## CC(NC(=O)c1cc(Br)cc(Br)c1)c1nc(Br)nn1-c1ccc(C(=O)N2CCOCC2)cn1 (stereo not drawn) [Example I-85]
[3]
  pest or weed control at 1 µg/cm2, 100 g/ha: 100%
  pest or weed control at 5 µg/cm2, 500 g/ha: 100%
